Results taken from the supplement of paper PMC13380429.

Legend:
Settings in all cases: 72 h
U2OS [1] = experiment: cell viability relative to DMSO; higher = less toxic
HepG2 [2] = experiment: as above
Calu-3 [3] = experiment: as above
Caco-2 [4] = experiment: as above
Vero E6 [5] = experiment: as above
U2OS [6] = experiment: drug sensitivity score (DSS) for viability; higher = more toxic; extreme values may be limits of the assay
HepG2 [7] = experiment: as above
Calu-3 [8] = experiment: as above
Caco-2 [9] = experiment: as above
Vero E6 [10] = experiment: as above
U2OS [11] = experiment: relative viability EC50 (midpoint between 100% and the lowest measured viability); higher = less toxic
Calu-3 [12] = experiment: as above
Caco-2 [13] = experiment: as above
Vero E6 [14] = experiment: as above
HepG2 [15] = experiment: as above

SMILES	cell viability (U2OS [1]; 1 nM) [%]	cell viability (U2OS [1]; 10 nM) [%]	cell viability (U2OS [1]; 100 nM) [%]	cell viability (U2OS [1]; 1000 nM) [%]	cell viability (U2OS [1]; 10000 nM) [%]	cell viability (HepG2 [2]; 1 nM) [%]	cell viability (HepG2 [2]; 10 nM) [%]	cell viability (HepG2 [2]; 100 nM) [%]	cell viability (HepG2 [2]; 1000 nM) [%]	cell viability (HepG2 [2]; 10000 nM) [%]	cell viability (Calu-3 [3]; 1 nM) [%]	cell viability (Calu-3 [3]; 10 nM) [%]	cell viability (Calu-3 [3]; 100 nM) [%]	cell viability (Calu-3 [3]; 1000 nM) [%]	cell viability (Calu-3 [3]; 10000 nM) [%]	cell viability (Caco-2 [4]; 1 nM) [%]	cell viability (Caco-2 [4]; 10 nM) [%]	cell viability (Caco-2 [4]; 100 nM) [%]	cell viability (Caco-2 [4]; 1000 nM) [%]	cell viability (Caco-2 [4]; 10000 nM) [%]	cell viability (Vero E6 [5]; 1 nM) [%]	cell viability (Vero E6 [5]; 10 nM) [%]	cell viability (Vero E6 [5]; 100 nM) [%]	cell viability (Vero E6 [5]; 1000 nM) [%]	cell viability (Vero E6 [5]; 10000 nM) [%]	drug sensitivity score (U2OS [6])	drug sensitivity score (HepG2 [7])	drug sensitivity score (Calu-3 [8])	drug sensitivity score (Caco-2 [9])	drug sensitivity score (Vero E6 [10])	relative viability EC50 (U2OS [11]) [µM]	relative viability EC50 (Calu-3 [12]) [µM]	relative viability EC50 (Caco-2 [13]) [µM]	relative viability EC50 (Vero E6 [14]) [µM]	relative viability EC50 (HepG2 [15]) [µM]
CC(C)C[C@@H](C(=O)N[C@@H](Cc1ccc(OCc2ccccc2)cc1)C(=O)NC(C)(C)C)N(C)Cc1ccc(C(C)(C)C)cc1	97.4	101	97.5	101	85.5	107	101	93.5	99.1	68	93.4	105	97.5	111	87.8	88.8	95.9	94.1	100	87.5	103	103	106	97.8	95.7	0.1	1.6	0	0	0	> 10	> 10	> 10	> 10	–
c1ccc(-c2oc3ncnc(NC[C@@H]4CCCO4)c3c2-c2ccccc2)cc1 [AIM-100]	103	102	105	101	95.5	83.4	98.6	99.8	97.4	95.6	106	92.2	96.6	97.7	74.7	115	92.6	96.6	104	71.3	90.2	98.6	96.6	87.2	95.9	0	0	1.3	1	0	> 10	–	–	> 10	> 10
CCN(CC)S(=O)(=O)c1ccc(C(=O)O)cc1 [etebenecid]	–	–	–	–	–	109	110	98.4	112	101	110	93.9	106	95.2	111	99.7	110	107	92.5	108	–	–	–	–	–	–	0	0	0	–	–	> 10	> 10	–	> 10
C[C@](O)(COc1ccc(C#N)cc1)C(=O)Nc1ccc(C#N)c(C(F)(F)F)c1 [ostarine]	–	–	–	–	–	107	107	103	109	92.8	109	98.9	99.4	95.9	97.9	–	–	–	–	–	–	–	–	–	–	–	0	0	–	–	–	> 10	–	–	> 10
Cc1ccc2c(Br)cc(Br)c(OC(=O)c3ccccc3)c2n1 [broxaldine]	98.2	102	98	92.7	42.4	111	95.5	116	93.7	19.6	103	99.8	87.6	97.4	66.5	84.9	100	84.9	93.8	29.2	109	108	109	98.3	54.8	4.3	5.4	2	4.9	2.5	2.14	–	2.44	–	2.53
Cc1nc(C#Cc2ccnc(Cl)c2)c(C)n1-c1ccc(OC(F)(F)F)cc1 [CTEP]	94.6	98.2	95.5	100	58.2	100	88.6	100	91.5	85.1	99.2	101	93	96.5	92.3	93.9	107	86.9	84.6	55.8	102	100	91.8	102	94.5	2.1	0.2	0	4	0	–	> 10	–	> 10	> 10
CCc1nc(C(N)=O)c(Nc2ccc(N3CCC(N4CCN(C)CC4)CC3)c(OC)c2)nc1NC1CCOCC1 [gilteritinib]	105	102	99.1	93.1	46	99.2	92.1	92.4	73.5	27.9	96.4	95.8	96.3	94.1	59.8	110	98.1	102	90.2	54.4	106	103	100	101	37.2	4.1	7	3	3.9	3.3	2.12	–	–	3.25	1.36
Cc1cc(C)c(CNC(=O)c2cc(-c3ccc(CN4CCOCC4)cc3)cc3c2cnn3C2CCCC2)c(=O)[nH]1	99	94.5	101	94.4	98.7	108	102	100	97.3	85.3	98	96.9	104	92	96.3	102	94.2	96.4	91.1	92	–	–	–	–	–	0	0.5	0	0	–	> 10	> 10	> 10	–	> 10
N=C(N)NN=C1C=CC(=NNC(N)=S)C=C1 [ambazone]	95	94.8	97.9	99.3	95	97.1	95.3	102	83.4	63.2	105	95.8	94.1	98.2	118	88.4	94.9	94.6	91.2	92.7	90.9	95.1	102	100	103	0	3.9	0	0	0	> 10	> 10	> 10	> 10	–
Nc1ncn([C@H]2C[C@H](O)[C@@H](CO)O2)c(=O)n1 [decitabine]	102	102	99.9	100	101	95.8	98.6	82.6	71.9	69.8	109	105	101	107	93.5	97.2	88.3	82.2	89.4	88.4	103	102	95.1	93	93.2	0	6.6	0	1.7	0	> 10	> 10	> 10	> 10	–
N#C/C(=C\c1ccc(O)c(O)c1)C(=O)Nc1ccccc1 [tyrphostin-AG-494]	105	102	99.2	97.3	93.1	101	102	98.6	110	54.6	93.5	102	95.1	101	107	110	99.8	104	95.7	88.3	104	100	104	105	90.6	0	1.8	0	0.2	0	> 10	> 10	> 10	> 10	–
Cc1nc2ccc(-n3ncc(C(=O)c4cc5ccccc5[nH]4)c3N)cc2[nH]1	99	94.5	97.8	84.1	84.3	94.6	99	87.3	104	76.2	100	86.9	98.4	87.6	84.7	100	94.5	92.9	86.4	89.3	96.5	96	93.6	89.4	69	1.9	0.7	0.7	0.8	2.2	> 10	> 10	> 10	–	> 10
C#Cc1cccc(Nc2ncnc3cc(OCCOC)c(OCCO)cc23)c1 [OSI-420]	96.7	99.8	97.6	94.2	85.1	110	102	100	104	76.7	115	103	73.8	48.6	47	106	101	101	86.9	76.6	103	105	98.2	79	65.1	0.3	0.6	13.1	2.3	4	> 10	0.101	> 10	–	> 10
COc1ccc2c(c1)c(CC(=O)N1CCOCC1)c(C)n2C(=O)c1ccc(Cl)cc1 [BML-190]	96.2	101	106	99.3	112	102	102	104	88	94.8	106	106	92.7	108	96.9	91.4	109	96.7	101	85.6	–	–	–	–	–	0	0.5	0	0.2	–	> 10	> 10	> 10	–	> 10
O=C(Nc1cc(Oc2cc(F)c(NC(=O)C3(C(=O)Nc4ccc(F)cc4)CC3)cc2F)ccn1)C1CC1 [altiratinib]	–	–	–	–	–	107	103	94.7	35.8	58.5	98.5	110	97.1	109	95.5	113	106	104	101	99.3	–	–	–	–	–	–	12.6	0	0	–	–	> 10	> 10	–	0.25
CC(=O)[C@@]12O[C@](C)(c3ccccc3)O[C@@H]1C[C@H]1[C@@H]3CCC4=CC(=O)CC[C@]4(C)[C@H]3CC[C@@]12C [algestone-acetophenide]	99.7	95.2	99.3	98.4	91.8	98.3	108	102	103	71.7	105	100	96.3	109	86.4	104	94.2	97.5	100	78.5	101	96.6	87.5	92.3	102	0	1	0	0.7	0	> 10	> 10	> 10	> 10	–
